{
  "source": "patent US12383545B1",
  "about": "“Treatment of migraine” (priority 2018, dated 2025)",
  "key": {"[1]": {"test_system": "participants with episodic migraine", "assay": "Study B: HIT-6 total score and responder rates", "type": "in vivo, human", "set-up": "key to Change from Baseline in HIT-6 Total Score, LS Mean Δ from baseline: points on HIT-6 total score (range 36–78); negative = improvement", "conditions": "for HIT-6 total score, LS mean change (95% confidence interval) / proportion of HIT-6 responders (≥5 points from baseline): Study B, 60 mg QD; for Change from Baseline in HIT-6 Total Score, LS Mean Δ from baseline / HIT-6 Total Score Responder Rates, % Responder: atogepant 60 mg; for Change from Baseline in HIT-6 Total Score, LS Mean Δ from baseline: mITT Population; for HIT-6 Total Score Responder Rates, % Responder: responder = ≥5 point improvement from baseline", "procedure": "In embodiments, the present disclosure provides a method for preventing migraine (such as a method for preventing migraine in patients having fewer than fifteen migraine days per month) wherein atogepant is administered in an amount of 10 mg QD, 30 mg QD, or 60 mg QD, wherein administration of atogepant results in a reduction in a 6-item Headache Impact Test (HIT-6) disability score relative to baseline. The Headache Impact Test (HIT-6) is a well-known tool for assessing migraine intensity, and uses six questions to measure the adverse impact of headache on, for example, social functioning, role functioning, vitality, cognitive functioning, and psychological distress. Responses are based on frequency using a 5-point verbal response scale ranging from “never” to “always”. The HIT-6 total score is the sum of the responses, and ranges from 36 to 78. See Yang et al., Validation of the Headache Impact Test (HIT-6™) Across Episodic and Chronic Migraine, Cephalalgia 2011 February; 31 (3): 357-367. In embodiments, treatment with atogepant results in a greater than five (≥5) point decrease in HIT-6 disability score.\nThe proportion of HIT-6 responders (≥5 points from baseline) were 59.92% and 80.77% of participants in the first (week 4) and last (week 52) timepoints assessed, respectively. A responder on the HIT-6 was defined as a participant with a ≥5 point improvement from baseline."}, "ALT or AST": {"test_system": "ALT or AST", "assay": "Study A: postbaseline hepatic laboratory parameters (ALT or AST, potential Hy's Law)", "type": "in vivo, human", "conditions": "safety population; for ALT or AST >=1 * ULN, n/N1 (%) / ALT or AST >=1.5 * ULN, n/N1 (%) / ALT or AST >=2 * ULN, n/N1 (%) / ALT or AST >=5 * ULN, n/N1 (%) / ALT or AST >=10 * ULN, n/N1 (%) / ALT or AST >=20 * ULN, n/N1: postbaseline", "procedure": "Adverse events were reported by participants throughout the trial, and at a 4-week follow-up visit. Adverse event information was collected and documented during each clinic visit. Participants could also report adverse events via telephone call between visits. Causality of each adverse event was determined by the investigator who was blinded to the treatment. In addition, clinical laboratory tests, vital signs, electrocardiograms (ECG), and Columbia-Suicide Severity Rating Scale were evaluated. Based on the potential hepatotoxicity of prior gepants, treatment-emergent elevations in ALT or AST ≥3 times the upper limit of normal, as well as potential Hy's law cases, were evaluated as prespecified adverse events of special interest and were reviewed by an independent panel of liver experts blinded to treatment (see, e.g., Negro A et al., CGRP Receptor Antagonists: an expanding drug class for acute migraine? Expert Opin Investig Drugs 2012; 21:807-18; Messina R et al., CGRP—a target for acute therapy in migraine: Clinical Data. Cephalalgia 2019; 39:420-7).\nThere were no hepatic safety issues identified in this trial. ALT and/or AST increases were low across all atogepant doses and occurred at a lower rate than placebo. […] No cases of liver disease were reported, and no case met the criteria for potential Hy's Law following daily dosing for 12 weeks."}, "[2]": {"assay": "Atogepant oral pharmacokinetics", "type": "in vivo", "conditions": "administered orally"}, "[3]": {"test_system": "participants with episodic migraine", "assay": "Study B: adverse events (atogepant 60 mg QD vs oral standard of care)", "type": "in vivo, human", "procedure": "Study B: A phase 3, multicenter, randomized, open label study was conducted to evaluate the long-term safety and tolerability of oral atogepant for the prevention of migraine in participants with episodic migraine (Study B). The study objective was to evaluate the safety and tolerability of daily treatment with atogepant 60 mg QD when administered over 52 weeks for the prevention of migraine in participants with episodic migraine.\nA total of 744 participants from 106 sites were randomized in a ratio of 5:2 to the following treatment groups: atogepant 60 mg QD or oral standard of care (SOC) migraine prevention medication. The latter arm was included to contextualize safety data from the atogepant-treated participants, and efficacy measures were collected from the atogepant arm only. Efficacy measures were evaluated using the modified intent-to-treat (mITT) population and a mixed-effects model for repeated measures and included changes from baseline in monthly migraine days (MDDs), moderate/severe headache days, and acute medication use days, as well as the proportion of responders based on reductions in MMDs.\nRegardless of which of these options was chosen, the participant was allowed to continue in the study. […]"}},
  "data": [
    {"smiles": "C[C@@H]1[C@H](c2c(F)ccc(F)c2F)C[C@H](NC(=O)c2cnc3c(c2)C[C@@]2(C3)C(=O)Nc3ncccc32)C(=O)N1CC(F)(F)F", "note": "[atogepant]", "values": [
      {"measurement": "HIT-6 total score, LS mean change (95% confidence interval)", "setting": "[1]; week 4", "value": "−7.63"},
      {"measurement": "proportion of HIT-6 responders (≥5 points from baseline)", "setting": "[1]; week 4", "value": 59.92, "unit": "%"},
      {"measurement": "HIT-6 total score, LS mean change (95% confidence interval)", "setting": "[1]; week 52", "value": "−12.10"},
      {"measurement": "proportion of HIT-6 responders (≥5 points from baseline)", "setting": "[1]; week 52", "value": 80.77, "unit": "%"},
      {"measurement": "Change from Baseline in HIT-6 Total Score, LS Mean Δ from baseline", "setting": "[1]; Week 4", "value": "−7.63"},
      {"measurement": "HIT-6 Total Score Responder Rates, % Responder", "setting": "[1]; Week 4", "value": 59.92, "unit": "%"},
      {"measurement": "Change from Baseline in HIT-6 Total Score, LS Mean Δ from baseline", "setting": "[1]; Week 8", "value": "−9.14"},
      {"measurement": "HIT-6 Total Score Responder Rates, % Responder", "setting": "[1]; Week 8", "value": 66.60, "unit": "%"},
      {"measurement": "Change from Baseline in HIT-6 Total Score, LS Mean Δ from baseline", "setting": "[1]; Week 12", "value": "−6.60"},
      {"measurement": "HIT-6 Total Score Responder Rates, % Responder", "setting": "[1]; Week 12", "value": 69.21, "unit": "%"},
      {"measurement": "Change from Baseline in HIT-6 Total Score, LS Mean Δ from baseline", "setting": "[1]; Week 16", "value": "−10.15"},
      {"measurement": "HIT-6 Total Score Responder Rates, % Responder", "setting": "[1]; Week 16", "value": 71.65, "unit": "%"},
      {"measurement": "Change from Baseline in HIT-6 Total Score, LS Mean Δ from baseline", "setting": "[1]; Week 20", "value": "−10.56"},
      {"measurement": "HIT-6 Total Score Responder Rates, % Responder", "setting": "[1]; Week 20", "value": 73.98, "unit": "%"},
      {"measurement": "Change from Baseline in HIT-6 Total Score, LS Mean Δ from baseline", "setting": "[1]; Week 24", "value": "−10.55"},
      {"measurement": "HIT-6 Total Score Responder Rates, % Responder", "setting": "[1]; Week 24", "value": 74.00, "unit": "%"},
      {"measurement": "Change from Baseline in HIT-6 Total Score, LS Mean Δ from baseline", "setting": "[1]; Week 28", "value": "−10.99"},
      {"measurement": "HIT-6 Total Score Responder Rates, % Responder", "setting": "[1]; Week 28", "value": 76.56, "unit": "%"},
      {"measurement": "Change from Baseline in HIT-6 Total Score, LS Mean Δ from baseline", "setting": "[1]; Week 32", "value": "−11.15"},
      {"measurement": "HIT-6 Total Score Responder Rates, % Responder", "setting": "[1]; Week 32", "value": 77.89, "unit": "%"},
      {"measurement": "Change from Baseline in HIT-6 Total Score, LS Mean Δ from baseline", "setting": "[1]; Week 36", "value": "−11.29"},
      {"measurement": "HIT-6 Total Score Responder Rates, % Responder", "setting": "[1]; Week 36", "value": 75.62, "unit": "%"},
      {"measurement": "Change from Baseline in HIT-6 Total Score, LS Mean Δ from baseline", "setting": "[1]; Week 40", "value": "−11.76"},
      {"measurement": "HIT-6 Total Score Responder Rates, % Responder", "setting": "[1]; Week 40", "value": 80.71, "unit": "%"},
      {"measurement": "Change from Baseline in HIT-6 Total Score, LS Mean Δ from baseline", "setting": "[1]; Week 44", "value": "−11.46"},
      {"measurement": "HIT-6 Total Score Responder Rates, % Responder", "setting": "[1]; Week 44", "value": 78.39, "unit": "%"},
      {"measurement": "Change from Baseline in HIT-6 Total Score, LS Mean Δ from baseline", "setting": "[1]; Week 48", "value": "−11.86"},
      {"measurement": "HIT-6 Total Score Responder Rates, % Responder", "setting": "[1]; Week 48", "value": 80.11, "unit": "%"},
      {"measurement": "Change from Baseline in HIT-6 Total Score, LS Mean Δ from baseline", "setting": "[1]; Week 52", "value": "−12.10"},
      {"measurement": "HIT-6 Total Score Responder Rates, % Responder", "setting": "[1]; Week 52", "value": 80.77, "unit": "%"},
      {"measurement": "ALT or AST >=1 * ULN, n/N1 (%)", "setting": "ALT or AST; 10 mg QD", "value": "(8.6) %"},
      {"measurement": "ALT or AST >=1.5 * ULN, n/N1 (%)", "setting": "ALT or AST; 10 mg QD", "value": "(1.4) %"},
      {"measurement": "ALT or AST >=2 * ULN, n/N1 (%)", "setting": "ALT or AST; 10 mg QD", "value": "(0.9) %"},
      {"measurement": "ALT or AST >=5 * ULN, n/N1 (%)", "setting": "ALT or AST; 10 mg QD", "value": "(0.5) %"},
      {"measurement": "ALT or AST >=10 * ULN, n/N1 (%)", "setting": "ALT or AST; 10 mg QD", "value": "(0.5) %"},
      {"measurement": "ALT or AST >=20 * ULN, n/N1", "setting": "ALT or AST; 10 mg QD", "value": 0},
      {"measurement": "Potential Hy's Law (ALT or AST >= 3 * ULN AND Bilirubin Total >= 2 * ULN AND ALP < 2 * ULN), n/N1", "setting": "ALT or AST; 10 mg QD", "value": 0},
      {"measurement": "ALT or AST >=1 * ULN, n/N1 (%)", "setting": "ALT or AST; 30 mg QD", "value": "(8.0) %"},
      {"measurement": "ALT or AST >=1.5 * ULN, n/N1 (%)", "setting": "ALT or AST; 30 mg QD", "value": "(3.1) %"},
      {"measurement": "ALT or AST >=2 * ULN, n/N1 (%)", "setting": "ALT or AST; 30 mg QD", "value": "(0.9) %"},
      {"measurement": "ALT or AST >=5 * ULN, n/N1 (%)", "setting": "ALT or AST; 30 mg QD", "value": "(0.4) %"},
      {"measurement": "ALT or AST >=10 * ULN, n/N1 (%)", "setting": "ALT or AST; 30 mg QD", "value": 0, "unit": "%"},
      {"measurement": "ALT or AST >=20 * ULN, n/N1", "setting": "ALT or AST; 30 mg QD", "value": 0},
      {"measurement": "Potential Hy's Law (ALT or AST >= 3 * ULN AND Bilirubin Total >= 2 * ULN AND ALP < 2 * ULN), n/N1", "setting": "ALT or AST; 30 mg QD", "value": 0},
      {"measurement": "ALT or AST >=1 * ULN, n/N1 (%)", "setting": "ALT or AST; 60 mg QD", "value": "(12.3) %"},
      {"measurement": "ALT or AST >=1.5 * ULN, n/N1 (%)", "setting": "ALT or AST; 60 mg QD", "value": "(3.1) %"},
      {"measurement": "ALT or AST >=2 * ULN, n/N1 (%)", "setting": "ALT or AST; 60 mg QD", "value": "(1.8) %"},
      {"measurement": "ALT or AST >=5 * ULN, n/N1 (%)", "setting": "ALT or AST; 60 mg QD", "value": "(0.4) %"},
      {"measurement": "ALT or AST >=10 * ULN, n/N1 (%)", "setting": "ALT or AST; 60 mg QD", "value": 0, "unit": "%"},
      {"measurement": "ALT or AST >=20 * ULN, n/N1", "setting": "ALT or AST; 60 mg QD", "value": 0},
      {"measurement": "Potential Hy's Law (ALT or AST >= 3 * ULN AND Bilirubin Total >= 2 * ULN AND ALP < 2 * ULN), n/N1", "setting": "ALT or AST; 60 mg QD", "value": 0},
      {"measurement": "time to maximum plasma concentrations", "setting": "[2]", "value": "≤ 2", "unit": "h"},
      {"measurement": "half-life", "setting": "[2]; plasma, po", "value": "~11", "unit": "h"},
      {"measurement": "Death, n (%)", "setting": "[3]; 52-week open-label, atogepant 60 mg QD or standard of care, safety population", "value": "(0.4) %"},
      {"measurement": "deaths reported (considered not related to atogepant)", "setting": "[3]; atogepant 60 mg QD", "value": "Two"}
    ]}
  ]
}
